Laboratory results from publication PMC11981944 (Nature, 2025).

Tests used:
[1] = test system: SARS-CoV-2 rWuhan M(P132S); format: cell-based
[2] = biological target: SARS-CoV-2 M protein (membrane protein), purified recombinant (SARS-CoV-2, UniProt P0DTC5); assay: cryo-EM structure

Row | Molecule | susceptibility of M(P132S) virus (in words) [1] | binding result [2]
1 | N#C[C@@]1(c2ccc3c(N)ncnn23)O[C@H](CO)[C@@H](O)[C@H]1O [GS-441524] | remained fully susceptible | –
2 | CC(C)(C)[C@H](NC(=O)C(F)(F)F)C(=O)N1C[C@H]2[C@@H]([C@H]1C(=O)N[C@H](C#N)C[C@@H]1CCNC1=O)C2(C)C [Nirmatrelvir] | remained fully susceptible | –
3 | Fab-B (Fab, V domains shown) VH: EVQLQQSGPELVKPGASMKISCKTSGYSFTGYTMNWVKQSHGKNLEWIGLINPYNGDTSYNQKFKGKATLTVDKSSSTAYMELLSLTSEDSAVYYCEVINTYWGQGTLVTVSA VL: DIVMTQSPASLAVSLGQRATISCKASQSIDYDGDNYMNWYQQKPGQPPKLLIYTTSNLESGIPARFSGSGSGTDFTLNIHPVEEGDAATYYCQQNNEDPYTFGGGTKLEIK | – | binds
